Reference: patent US9896441B2 (Lycera Corporation, priority 2014, dated 2018)

Key:
Gal4-RORγ-LBD = target: T1, Gal4-RORγ-LBD (Homo sapiens, UniProt P51449); test: Gal4-RORγ Luciferase Reporter Assay in HEK-293T Cells; type: cell-based; details: HEK-293 cells, luciferase reporter; for Gal4-RORγ Assay Max Response: maximum response
T1 construct: expressed in transfected cells
T1 sequence (P51449 269-508 limits assumed): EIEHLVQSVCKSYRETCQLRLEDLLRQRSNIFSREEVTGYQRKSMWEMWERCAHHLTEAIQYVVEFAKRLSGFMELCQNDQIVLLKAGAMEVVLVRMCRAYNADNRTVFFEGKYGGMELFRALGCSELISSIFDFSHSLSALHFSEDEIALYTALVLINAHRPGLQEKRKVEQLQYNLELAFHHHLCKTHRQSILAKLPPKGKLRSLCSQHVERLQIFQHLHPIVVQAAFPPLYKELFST
Method: Assay procedures and results are described below.
In the following protocol, HEK-293 cells were transfected with a construct comprising the Gal4 DNA binding domain fused to the ligand binding domain of RORγ (Gal4-RORγ-LBD) in a pcDNA3.1neo plasmid, and also with a reporter construct comprising pGL4.31 Gal4-luciferase (Promega). Control cells were prepared similarly using empty pcDNA3.1neo and pGL4.31 vectors.
Trans-IT reagent (Mirus, 60 μL) at room temperature was added drop wise to OptiMEM (Invitrogen, 1.5 ml). This reagent mixture was mixed by inversion then incubated for 5 to 30 minutes at room temperature. It then was added to a solution of both expression vectors (5 μg each), mixed, and incubated at room temperature for about 20 minutes. HEK-293 cells were harvested from incubation flasks by removing the media, treating with TrypLE Express (Invitrogen), and incubating until the cells detached from the bottom of the flask (approximately 2-5 minutes). 10 Million cells were collected by centrifugation and re-suspended in 10 mL of Dulbecco's Modified Eagle Medium, High Glucose (DMEM, Invitrogen) containing 10% Fetal Bovine Serum and 100 IU each of penicillin and streptomycin. The re-suspended cells and the transfection mixture were added to a T75 flask, mixed and incubated overnight at 37° C. and 5% CO2.
The cells were harvested as described above, counted, and centrifuged to obtain the desired number of cells, then re-suspended in complete growth media at 0.75×10^6 cells/mL. The RORγ antagonist, ursolic acid, was added to the cells at a final concentration of […]. Cells were plated at 20 µL of cell suspension/well (10,000-15,000 cells/well) in white tissue culture treated 384 well plates. Test compounds were dissolved at 10 mM in DMSO then diluted into complete growth medium to 5× the final intended test concentration. These drug stock solutions, 5 µL/well were added to the tissue culture plate. The final DMSO concentration was 0.2%. The plates were briefly centrifuged then incubated overnight at 37° C. and 5% CO2. To conduct the assay, the tissue culture plates were allowed to equilibrate to room temperature and One-Glo luciferase reagent (Promega, 25 µL/well) was added. The plates were briefly centrifuged then incubated at room temperature for 10 minutes. The luciferase intensity was read on an Envision plate reader (Perkin Elmer). […] The luciferase signal in the absence of ursolic acid or test compound is defined at 100. The Max Response is the upper plateau in the signal as determined by line-fit using a 4-parameter logistic model in PRISM (GraphPad).

RORγ-LBD = target: T2, RORγ-LBD (Homo sapiens, UniProt P51449); test: RORγ-Ligand Binding Domain (LBD) TR-FRET Assay; type: biochemical; details: RORγ-LBD TR-FRET
T2 construct: made in house; host or cells: SF9 cells (baculovirus); used as diluted lysate
T2 sequence (P51449 269-508 limits assumed): T1 sequence (P51449 269-508 limits assumed)
Method in brief: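 His-tagged RORγ-LBD from SF9 baculovirus lysate, ~3 nM final, in 50 mM Tris pH 7.0, 50 mM KCl, 1 mM EDTA, 0.1 mM DTT, 0.01% BSA. Biotinylated SRC1 LXXLL peptide at 200 nM final with 2 μM ursolic acid; TR-FRET read-out, 1% DMSO final.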

Row | EC50 (Gal4-RORγ-LBD; with ursolic acid) | EC50 (RORγ-LBD) | EC50 (Gal4-RORγ-LBD; in presence of ursolic acid) | Structure (SMILES) | Gal4-RORγ Assay Max Response (Gal4-RORγ-LBD; in presence of ursolic acid)
1 | 500 to 5000 nM | < 500 nM |  | O=C(O)CC[C@H]1CN(S(=O)(=O)c2cc(C(F)(F)F)cnc2OCCO)c2cc(/C=C/c3c(F)cccc3Cl)ccc2O1 [Example 89EC, (S,E)-3-(6-(2-chloro-6-fluorostyryl)-4-((2-(2-hydroxyethoxy)-5-(trifluoromethyl)-pyridin-3-yl)sulfonyl)-3,4-dihydro-2H-benzo[b][1,4]oxazin-2-yl)propanoic acid] | 
2 | 500 to 5000 nM | < 500 nM |  | CC1CCC/C(=C\c2ccc3c(c2)N(S(=O)(=O)c2cccc(C(F)(F)F)c2)C[C@H](CCC(=O)O)O3)C1 (stereo partly drawn) [Example 95G, 3-((2S)-6-((E)-(3-methylcyclo-hexylidene)methyl)-4-((3-(trifluoromethyl)phenyl)sulfonyl)-3,4-dihydro-2H-benzo[b][1,4]-oxazin-2-yl)propanoic acid] | 
3 | 500 to 5000 nM | < 500 nM |  | CCOc1ncc(Cl)cc1S(=O)(=O)N1C[C@H](CCC(=O)OC)Oc2ccc(/C=C/c3c(Cl)cccc3C(F)(F)F)cc21 [Example 89CY, methyl (S,E)-3-(4-((5-chloro-2-ethoxypyridin-3-yl)sulfonyl)-6-(2-chloro-6-(trifluoromethyl)-styryl)-3,4-dihydro-2H-benzo-[b][1,4]oxazin-2-yl)propanoate] | 
4 | 500 to 5000 nM | < 500 nM |  | CC1CCC(=Cc2ccc3c(c2)N(S(=O)(=O)c2cc(C(F)(F)F)cnc2OCCO)C[C@H](CCC(=O)O)O3)CC1 (stereo partly drawn) [Example 95P, 3-((2S)-4-((2-(2-hydroxyethoxy)-5-(trifluoromethyl)pyridin-3-yl)sulfonyl)-6-((4-methylcyclohexylidene)methyl)-3,4-dihydro-2H-benzo[b][1,4]oxazin-2-yl)propanoic acid] | 
5 |  |  | < 500 nM | C/C(=C\c1ccc2c(c1)N(S(=O)(=O)c1cccc(C(F)(F)F)c1)C[C@H](CCC(=O)N1CC(C#N)C1)O2)c1c(F)cccc1Cl [Example 127M, (S,E)-1-(3-(6-(2-(2-chloro-6-fluorophenyl)-prop-1-en-1-yl)-4-((3-(trifluoromethyl)phenyl)-sulfonyl)-3,4-dihydro-2H-benzo[b][1,4]oxazin-2-yl)propanoyl)azetidine-3-carbonitrile] | ** (a value in the range of greater than 90 to 150)
6 | < 500 nM |  |  | C/C(=C\c1ccc2c(c1)N(S(=O)(=O)c1cc(F)cc(C(F)(F)F)c1)C[C@H](CCC(=O)O)O2)c1c(F)cccc1Cl [Example 86AQ, (S,E)-3-(6-(2-(2-chloro-6-fluorophenyl)-prop-1-en-1-yl)-4-((3-fluoro-5-(trifluoromethyl)-phenyl)sulfonyl)-3,4-dihydro-2H-benzo[1,4]oxazin-2-yl)propanoic acid] | 
7 |  |  | < 500 nM | C/C(=C\c1ccc2c(c1)N(S(=O)(=O)c1cccc(C(F)(F)F)c1)C[C@H](CCC(=O)NCCC(=O)O)O2)c1c(F)cccc1Cl [Example 129P, (S,E)-3-(3-(6-(2-(2-chloro-6-fluorophenyl)-prop-1-en-1-yl)-4-((3-(trifluoromethyl)phenyl)-sulfonyl)-3,4-dihydro-2H-benzo[b][1,4]oxazin-2-yl)propanamido)-propanoic acid] | *** (a value in the range of greater than 150 to 200)
8 | 500 to 5000 nM |  |  | CC(C)c1ccccc1/C=C/c1ccc2c(c1)N(S(=O)(=O)c1cccc(C(F)(F)F)c1)C[C@H](CCC(=O)O)O2 [Example 89CB, (S,E)-3-(6-(2-isopropylstyryl)-4-((3-(trifluoromethyl)-phenyl)-sulfonyl)-3,4-dihydro-2H-benzo[b][1,4]oxazin-2-yl)propanoic acid] | 
9 | > 10000 nM |  |  | COC(=O)CC[C@H]1CN(S(=O)(=O)c2cccc(C(F)(F)F)c2)c2cc(/C=C/c3cccnc3C(F)(F)F)ccc2O1 [Example 89DF, methyl (S,E)-3-(4-((3-(trifluoromethyl)phenyl)-sulfonyl)-6-(2-(2-(trifluoromethyl)pyridin-3-yl)vinyl)-3,4-dihydro-2H-benzo[b][1,4]oxazin-2-yl)propanoate] | 
10 | > 10000 nM |  |  | COC(=O)CC[C@H]1CN(S(=O)(=O)c2cccc(C(F)(F)F)c2)c2cc(/C=C/c3ncccc3F)ccc2O1 [Example 89DG, methyl (S,E)-3-(6-(2-(3-fluoropyridin-2-yl)vinyl)-4-((3-(trifluoromethyl)phenyl)-sulfonyl)-3,4-dihydro-2H-benzo[b][1,4]oxazin-2-yl)propanoate] | 
11 | < 500 nM |  |  | COC(=O)CC[C@H]1CN(S(=O)(=O)c2cccc(C(F)(F)F)c2)c2cc(/C=C(\C)c3ccccc3OC)ccc2O1 [Example 86AJ, (S,E)-methyl 3-(6-(2-(2-methoxyphenyl)prop-1-en-1-yl)-4-((3-(trifluoromethyl)phenyl)sulfonyl)-3,4-dihydro-2H-benzo[b][1,4]-oxazin-2-yl)propanoate] | 

The remaining lines, values behind:

Row | Structure (SMILES) | EC50 (Gal4-RORγ-LBD; with ursolic acid) | EC50 (RORγ-LBD) | EC50 (Gal4-RORγ-LBD; in presence of ursolic acid) | Gal4-RORγ Assay Max Response (Gal4-RORγ-LBD; in presence of ursolic acid)
12 | COC(=O)CC[C@H]1CN(S(=O)(=O)c2cccc(C(F)(F)F)c2)c2cc(/C(C)=C/c3c(F)cccc3Cl)ccc2O1 [Example 31, (S,E)-Methyl 3-(6-(1-(2-chloro-6-fluorophenyl)prop-1-en-2-yl)-4-((3-(trifluoromethyl)phenyl)sulfonyl)-3,4-dihydro-2H-benzo[b][1,4]oxazin-2-yl)propanoate] | 500 to 5000 nM | < 500 nM |  | 
13 | C/C(=C\c1cc(F)c2c(c1)N(S(=O)(=O)c1cccc(OC(F)F)c1)C[C@H](CCC(=O)O)O2)c1c(F)cccc1Cl [Example 52, (S,E)-3-(6-(2-(2-Chloro-6-fluorophenyl)prop-1-en-1-yl)-4-((3-(difluoromethoxy)phenyl)sulfonyl)-8-fluoro-3,4-dihydro-2H-benzo[b][1,4]oxazin-2-yl)propanoic acid] | 500 to 5000 nM | < 500 nM |  | 
14 | COc1cc(S(=O)(=O)N2C[C@H](CCC(=O)O)Oc3ccc(/C=C(\C)C4CCCCC4)cc32)ccc1F [Example 190, (S,E)-3-(6-(2-cyclohexylprop-1-en-1-yl)-4-((4-fluoro-3-methoxyphenyl)sulfonyl)-3,4-dihydro-2H-benzo[b][1,4]oxazin-2-yl)propanoic acid] |  |  | > 10000 nM | 
15 | CC/C(=C\c1ccc2c(c1)N(S(=O)(=O)c1cccc(C(F)(F)F)c1)C[C@H](CCC(=O)OC)O2)c1ccccc1 [Example 36B, methyl (S,E)-3-(6-(2-phenylbut-1-en-1-yl)-4-((3-(trifluoromethyl)-phenyl)sulfonyl)-3,4-dihydro-2H-benzo[b][1,4]oxazin-2-yl)propanoate] | > 10000 nM |  |  | 
16 | CCOc1nn2c(c1S(=O)(=O)N1C[C@H](CCC(=O)O)Oc3ccc(/C=C(\C)c4c(F)cccc4Cl)cc31)CCCC2 [Example 66, (S,E)-3-(6-(2-(2-Chloro-6-fluorophenyl)prop-1-en-1-yl)-4-((2-ethoxy-4,5,6,7-tetrahydropyrazolo[1,5-a]pyridin-3-yl)sulfonyl)-3,4-dihydro-2H-benzo[b][1,4]oxazin-2-yl)propanoic acid] | < 500 nM |  |  | 
17 | O=C(O)CC[C@H]1CN(S(=O)(=O)c2cccc(C(F)(F)F)c2)c2cc(/C=C3\CCc4ccccc43)ccc2O1 [Example 38C, (S,E)-3-(6-((2,3-dihydro-1H-inden-1-ylidene)methyl)-4-((3-(trifluoromethyl)phenyl)sulfonyl)-3,4-dihydro-2H-benzo[b][1,4]-oxazin-2-yl)propanoic acid] | 500 to 5000 nM |  |  | 
